Experimental data published in ChEMBL document CHEMBL3885881, “DrugMatrix”.

Species on record: Rattus norvegicus
Assay: DrugMatrix - Regimen: Daily Repeat
Format: toxicity, organism-based, Sprague-Dawley
Set-up: regimen Daily Repeat, gender Male, age 6-8 weeks
Conditions: in vivo, po, route oral GAVAGE, vehicle 100 % SALINE; for ABSOLUTE BASOPHIL / ABSOLUTE EOSINOPHIL / ABSOLUTE LYMPHOCYTE / ABSOLUTE MONOCYTE / BASOPHIL / EOSINOPHIL / ERYTHROCYTE COUNT / HEMATOCRIT / HEMOGLOBIN / LEUKOCYTE COUNT / LYMPHOCYTE / MEAN CORPUSCULAR HEMOGLOBIN / MEAN CORPUSCULAR HEMOGLOBIN CONCENTRATION / MEAN CORPUSCULAR VOLUME / MONOCYTE / NEUTROPHIL / PLATELET COUNT: tissue Blood; for ALANINE AMINOTRANSFERASE / ALBUMIN / ALKALINE PHOSPHATASE / ASPARTATE AMINOTRANSFERASE / BLOOD UREA NITROGEN / CARBON DIOXIDE / CHLORIDE / CHOLESTEROL / CREATINE PHOSPHOKINASE / CREATININE / GLUCOSE / LACTATE DEHYDROGENASE / LIPASE / PHOSPHORUS / POTASSIUM / SODIUM / TOTAL BILIRUBIN / TOTAL PROTEIN / URIC ACID: tissue Plasma
[1] = 0 mg/kg, 72 h, dose level Control, time 3 day
[2] = 0 mg/kg, 120 h, dose level Control, time 5 day
[3] = 0 mg/kg, […], dose level Control, time 14 day
[4] = […], 72 h, dose 7.5 mg/Kg, dose level High, time 3 day
[5] = […], 120 h, dose 7.5 mg/Kg, dose level High, time 5 day

Nc1ncnc2c1ncn2[C@@H]1O[C@H](CO)[C@@H](O)[C@H]1F [2'-BETA-FLUORO-2',3'-DEOXYADENOSINE]
ABSOLUTE BASOPHIL [1]: 140 cells/µL | ABSOLUTE EOSINOPHIL [1]: 43.3 cells/µL | ABSOLUTE LYMPHOCYTE [1]: 7570 cells/µL | ABSOLUTE MONOCYTE [1]: 160 cells/µL | BASOPHIL [1]: 1.47% | EOSINOPHIL [1]: 0.47% | ERYTHROCYTE COUNT [1]: 6.68 x10E6/uL | HEMATOCRIT [1]: 44.33% | HEMOGLOBIN [1]: 14.43 G/DL | LEUKOCYTE COUNT [1]: 9.33 x10E3/uL | LYMPHOCYTE [1]: 81.23% | MEAN CORPUSCULAR HEMOGLOBIN [1]: 21.67 pg | MEAN CORPUSCULAR HEMOGLOBIN CONCENTRATION [1]: 32.6 G/DL | MEAN CORPUSCULAR VOLUME [1]: 66.43 fL | MONOCYTE [1]: 1.73% | NEUTROPHIL [1]: 14.7% | PLATELET COUNT [1]: 1341.67 x10E3/uL | ALANINE AMINOTRANSFERASE [1]: 31 u/L | ALBUMIN [1]: 4.03 G/DL | ALKALINE PHOSPHATASE [1]: 447 u/L | ASPARTATE AMINOTRANSFERASE [1]: 61.33 u/L | BLOOD UREA NITROGEN [1]: 15.67 mg/dL | CARBON DIOXIDE [1]: 43 mmol/L | CHLORIDE [1]: 103.33 MEQ/L | CHOLESTEROL [1]: 83.67 mg/dL | CREATINE PHOSPHOKINASE [1]: 174.33 u/L | CREATININE [1]: 0.4 mg/dL | GLUCOSE [1]: 173 mg/dL | LACTATE DEHYDROGENASE [1]: 87.67 u/L | LIPASE [1]: 17.33 u/L | PHOSPHORUS [1]: 10.27 mg/dL | POTASSIUM [1]: 6.47 MEQ/L | SODIUM [1]: 143.67 MEQ/L | TOTAL BILIRUBIN [1]: 0.37 mg/dL | TOTAL PROTEIN [1]: 6.63 G/DL | URIC ACID [1]: 1.03 mg/dL | ABSOLUTE BASOPHIL [2]: 53.3 cells/µL | ABSOLUTE EOSINOPHIL [2]: 210 cells/µL | ABSOLUTE LYMPHOCYTE [2]: 8220 cells/µL | ABSOLUTE MONOCYTE [2]: 200 cells/µL | BASOPHIL [2]: 0.53% | EOSINOPHIL [2]: 2.1% | ERYTHROCYTE COUNT [2]: 7 x10E6/uL | HEMATOCRIT [2]: 44% | HEMOGLOBIN [2]: 14.53 G/DL | LEUKOCYTE COUNT [2]: 10.44 x10E3/uL | LYMPHOCYTE [2]: 78.07% | MEAN CORPUSCULAR HEMOGLOBIN [2]: 20.77 pg | MEAN CORPUSCULAR HEMOGLOBIN CONCENTRATION [2]: 33 G/DL | MEAN CORPUSCULAR VOLUME [2]: 62.87 fL | MONOCYTE [2]: 1.87% | NEUTROPHIL [2]: 16.8% | PLATELET COUNT [2]: 1104.33 x10E3/uL | ALANINE AMINOTRANSFERASE [2]: 31.67 u/L | ALBUMIN [2]: 3.93 G/DL | ALKALINE PHOSPHATASE [2]: 394.67 u/L | ASPARTATE AMINOTRANSFERASE [2]: 65.67 u/L | BLOOD UREA NITROGEN [2]: 15.67 mg/dL | CARBON DIOXIDE [2]: 40.67 mmol/L | CHLORIDE [2]: 104.33 MEQ/L | CHOLESTEROL [2]: 66.33 mg/dL | CREATINE PHOSPHOKINASE [2]: 346.67 u/L | CREATININE [2]: 0.33 mg/dL | GLUCOSE [2]: 176.67 mg/dL | LACTATE DEHYDROGENASE [2]: 109 u/L | LIPASE [2]: 14.33 u/L | PHOSPHORUS [2]: 11.17 mg/dL | POTASSIUM [2]: 6.53 MEQ/L | SODIUM [2]: 146 MEQ/L | TOTAL BILIRUBIN [2]: 0.37 mg/dL | URIC ACID [2]: 0.97 mg/dL | ABSOLUTE BASOPHIL [3]: 93.3 cells/µL | ABSOLUTE EOSINOPHIL [3]: 80 cells/µL | ABSOLUTE LYMPHOCYTE [3]: 6890 cells/µL | ABSOLUTE MONOCYTE [3]: 170 cells/µL | BASOPHIL [3]: 1% | EOSINOPHIL [3]: 0.83% | ERYTHROCYTE COUNT [3]: 7.03 x10E6/uL | HEMATOCRIT [3]: 43.4% | HEMOGLOBIN [3]: 14.83 G/DL | LEUKOCYTE COUNT [3]: 8.94 x10E3/uL | LYMPHOCYTE [3]: 77.93% | MEAN CORPUSCULAR HEMOGLOBIN [3]: 21.1 pg | MEAN CORPUSCULAR HEMOGLOBIN CONCENTRATION [3]: 34.17 G/DL | MEAN CORPUSCULAR VOLUME [3]: 61.77 fL | MONOCYTE [3]: 1.33% | NEUTROPHIL [3]: 18% | PLATELET COUNT [3]: 1097.33 x10E3/uL | ALANINE AMINOTRANSFERASE [3]: 32 u/L | ALBUMIN [3]: 3.83 G/DL | ALKALINE PHOSPHATASE [3]: 334.67 u/L | ASPARTATE AMINOTRANSFERASE [3]: 69.33 u/L | BLOOD UREA NITROGEN [3]: 16 mg/dL | CARBON DIOXIDE [3]: 40 mmol/L | CHLORIDE [3]: 105.67 MEQ/L | CHOLESTEROL [3]: 70.33 mg/dL | CREATINE PHOSPHOKINASE [3]: 144.67 u/L | CREATININE [3]: 0.3 mg/dL | GLUCOSE [3]: 177.67 mg/dL | LACTATE DEHYDROGENASE [3]: 97.67 u/L | LIPASE [3]: 16.33 u/L | PHOSPHORUS [3]: 10.83 mg/dL | POTASSIUM [3]: 5.77 MEQ/L | SODIUM [3]: 143.33 MEQ/L | TOTAL BILIRUBIN [3]: 0.33 mg/dL | TOTAL PROTEIN [3]: 6.37 G/DL | URIC ACID [3]: 0.17 mg/dL | ABSOLUTE BASOPHIL [4]: 280 cells/µL | ABSOLUTE EOSINOPHIL [4]: 220 cells/µL | ABSOLUTE LYMPHOCYTE [4]: 9970 cells/µL | ABSOLUTE MONOCYTE [4]: 370 cells/µL | BASOPHIL [4]: 2.3% | EOSINOPHIL [4]: 2.07% | ERYTHROCYTE COUNT [4]: 6.92 x10E6/uL | HEMATOCRIT [4]: 45.73% | HEMOGLOBIN [4]: 14.7 G/DL | LEUKOCYTE COUNT [4]: 12.17 x10E3/uL | LYMPHOCYTE [4]: 81.03% | MEAN CORPUSCULAR HEMOGLOBIN [4]: 21.23 pg | MEAN CORPUSCULAR HEMOGLOBIN CONCENTRATION [4]: 32.1 G/DL | MEAN CORPUSCULAR VOLUME [4]: 66.07 fL | MONOCYTE [4]: 3.03% | NEUTROPHIL [4]: 11.03% | PLATELET COUNT [4]: 1214.67 x10E3/uL | ALANINE AMINOTRANSFERASE [4]: 43.33 u/L | ALBUMIN [4]: 3.93 G/DL | ALKALINE PHOSPHATASE [4]: 434.67 u/L | ASPARTATE AMINOTRANSFERASE [4]: 98.33 u/L | BLOOD UREA NITROGEN [4]: 16 mg/dL | CARBON DIOXIDE [4]: 43.33 mmol/L | CHLORIDE [4]: 103 MEQ/L | CHOLESTEROL [4]: 76.33 mg/dL | CREATINE PHOSPHOKINASE [4]: 214.67 u/L | CREATININE [4]: 0.43 mg/dL | GLUCOSE [4]: 167.67 mg/dL | LACTATE DEHYDROGENASE [4]: 99.33 u/L | LIPASE [4]: 12 u/L | PHOSPHORUS [4]: 11 mg/dL | POTASSIUM [4]: 7.1 MEQ/L | SODIUM [4]: 144 MEQ/L | TOTAL BILIRUBIN [4]: 0.33 mg/dL | TOTAL PROTEIN [4]: 6.37 G/DL | URIC ACID [4]: 0.97 mg/dL | ABSOLUTE BASOPHIL [5]: 86.7 cells/µL | ABSOLUTE EOSINOPHIL [5]: 120 cells/µL | ABSOLUTE LYMPHOCYTE [5]: 11100 cells/µL | ABSOLUTE MONOCYTE [5]: 270 cells/µL | BASOPHIL [5]: 0.63% | EOSINOPHIL [5]: 0.9% | ERYTHROCYTE COUNT [5]: 7.18 x10E6/uL | HEMATOCRIT [5]: 44.8% | HEMOGLOBIN [5]: 14.83 G/DL | LEUKOCYTE COUNT [5]: 13.05 x10E3/uL | LYMPHOCYTE [5]: 85.27% | MEAN CORPUSCULAR HEMOGLOBIN [5]: 20.7 pg | MEAN CORPUSCULAR HEMOGLOBIN CONCENTRATION [5]: 33.13 G/DL | MEAN CORPUSCULAR VOLUME [5]: 62.43 fL | MONOCYTE [5]: 2.07% | NEUTROPHIL [5]: 10.57% | PLATELET COUNT [5]: 1282.67 x10E3/uL | ALANINE AMINOTRANSFERASE [5]: 66 u/L | ALBUMIN [5]: 3.73 G/DL | ALKALINE PHOSPHATASE [5]: 389.33 u/L | ASPARTATE AMINOTRANSFERASE [5]: 161.67 u/L | BLOOD UREA NITROGEN [5]: 16 mg/dL | CARBON DIOXIDE [5]: 40 mmol/L | CHLORIDE [5]: 106.67 MEQ/L | CHOLESTEROL [5]: 69.67 mg/dL | CREATINE PHOSPHOKINASE [5]: 169 u/L | CREATININE [5]: 0.4 mg/dL | GLUCOSE [5]: 172.33 mg/dL | LACTATE DEHYDROGENASE [5]: 94.33 u/L | LIPASE [5]: 11.33 u/L | PHOSPHORUS [5]: 10.2 mg/dL | POTASSIUM [5]: 6.1 MEQ/L | SODIUM [5]: 147.33 MEQ/L | TOTAL BILIRUBIN [5]: 0.3 mg/dL | TOTAL PROTEIN [5]: 6.03 G/DL | URIC ACID [5]: 0.97 mg/dL
